In US20130330422A1, “METHODS FOR INCREASING INSULIN SENSITIVITY AND TREATING DIABETES WITH A BIOACTIVE CHROMIUM BINDING PEPTIDE” (The Board of Trustees of the University of Alabama, priority 2012, published 2013):
Non-standard residues stand in square brackets, D forms with d. No end group written: not given here. pGlu = O=C1CC[C@@H](C(=O)O)N1

Experiments:
[1] = Chromium binding studies: ultrafiltration equilibrium dialysis with 51CrCl3, Langmuir isotherms and Hill plots; conditions: for Langmuir parameter Bt / Langmuir parameter K: Cr^3+ binding, 0.1 mol/L Hepes pH 7.4, 4° C.; for Co-operativity / Kf (Hill plot binding of formation constant) / n (Hill constant): chromium(III) binding, Hill plot; for chromium:oligopeptide ratio at the intersection point of the Langmuir isotherm (number of tightly binding ions): estimated from Langmuir isotherm
Experimental: A variation of the equilibrium dialysis method using an ultrafiltration device was utilized to examine the binding of chromium to the synthetic peptides. Aliquots of a mixture of CrCl3 and ^51CrCl3 were combined to generate different concentrations of Cr(III) while maintaining the synthetic peptide in solution at a constant volume. Known amounts (approximately 0.46 μmol) of peptide and 200 mL of 0.1 mol/L Hepes buffer (pH 7.4) were slowly stirred in an Amicon 8400 ultrafiltration unit (with a YC05 membrane) at 4° C. temperature for at least 12 h to achieve equilibration. The ultrafiltration unit was then pressurized, and effluent was collected. The content of free chromic ion in the effluent was determined by gamma counting using a Packard Cobra II auto-gamma counter. Chromium binding experiments were performed in triplicate, and the synthetic peptide used in at least one of the three sets of triplicates was from a different synthesis. As a control for the chromium-binding experiments, the ultrafiltration procedure was performed without peptide to establish the amount of chromium that adhered to the ultrafiltration unit; all experiments were corrected for this background. Linear regression analyses of the Langmuir isotherms and Hill plots were performed using SigmaPlot 11.0. The Cr concentration of solutions of isolated peptides were determined by graphite furnace atomic absorption spectroscopy using a PerkinElmer Analyst 400 atomic absorption spectrometer equipped with an HGA-900 graphite furnace and an AS-800 autosampler using a chromium hollow cathode lamp operating at 10 mA; a spectral bandwidth of 0.8 nm was selected to isolate the light at 353.7 nm. Chromium standard solution obtained from Perkin Elmer (Waltham, Mass.) was utilized to generate a standard curve.
Errors are presented throughout as standard deviations of the triplicate analyses. Doubly deionized H2O was used throughout. Amino acid analyses of samples were performed by the Protein and Separation Analysis Laboratory at Purdue University. Protein concentrations were determined by the fluorescamine method (Davis et al. “Isolation and characterization of a biologically active form of chromium oligopeptide from bovine liver,” Arch Biochem Biophys. 1997; 339:335-343.) Fluorescence measurements were obtained on a Jobin Yvon FluoroMax-3 fluorescence spectrophotometer. Ultraviolet-visible spectra were obtained using a Hewlett-Packard 8451A or a Beckman Coulter DU 800 spectrophotometer.
As chromium binding to the oligopeptide LMWCr is believed to be through only carboxylate residues and the heptapeptide pEEEEGDD (SEQ ID NO: 1) retains all the aspartate and glutamate residues in LMWCr, whether the heptapeptide can bind chromium in a similar fashion to LMWCr was investigated. The binding of chromium to bovine apoLMWCr prepared by the low pH EDTA method (Davis and Vincent), the heptapeptide pEEEEGDD (SEQ ID NO: 1), and two other acidic peptides was probed. […] The number of Cr^3+ ions binding to the peptides was estimated using Langmuir isotherms. For the Langmuir isotherms of Cr^3+ binding to all the synthetic peptides, Cr binding to apoLMWCr can be represented by two intersecting straight lines with different slopes (FIG. 5)). […] Negative values of the Langmuir parameters Bt and K were found for each peptide: apoLMWCr, −2.69 mmol/g and −109 L/mmol, respectively; EDGEECDCGE (SEQ ID NO: 41), −6.97 mmol/g and −354 L/mmol; DGEECDCGEE (SEQ ID NO: 42), −62.9 mmol/g and −9.94 L/mmol; and pEEEEGDD (SEQ ID NO: 1), −0.73 mmol/g and −151 L/mmol.
To further compare the binding properties between the synthetic peptides and apoLMWCr in CrCl3 solution, the method of Hill was applied to establish the degree of cooperativity between the covalent binding sites with the initial low amounts of substrate in solution, assuming covalent binding sites are occupied before surface adsorption occurs. The total number of tight binding sites established using the Langmuir isotherm was utilized. […]

cultured myotubes = test: Insulin-stimulated 2-[3H]-deoxyglucose uptake in cultured myotubes; format: cell-based; conditions: peptide 10 mM and/or chromium 1 h, insulin 50 nM 10 min; 10 mM or 25 mM glucose overnight
Experimental: Myotubes were incubated with the peptide (10 mM) and/or chromium for 1 h and stimulated with insulin (50 nM) for 10 min, and 2-[^3H]-deoxyglucose uptake was assessed. Data represent mean counts per minute (cpm)/mg protein/30 min±SE (n=3). *p<0.01 compared to basal low glucose conditions. **p<0.01 compared to insulin-stimulated low glucose conditions. ***p<0.001 compared to high glucose conditions.

Akt = test: Insulin-stimulated phosphorylation of Akt in cultured myotubes (Western blot); format: cell-based; conditions: peptide and/or chromium (1 μM) 1 h, insulin 5 nm
Experimental: Myotubes were incubated with the peptide and/or chromium (1 μM) for 1 h and stimulated with insulin 5 nm. (A) Representative Western blots of p^308-Akt and Akt, and (B) Densitometric quantitation of the Western blots. Data represent mean±SE (n=3), *p<0.001 versus control **p<0.01 compared to insulin-stimulated glucose uptake (panel A). *p<0.001 versus control ^#p<0.05 compared to insulin-stimulated glucose uptake in untreated cells (panel B).

[2] = Insulin-stimulated glucose uptake in vivo, tail-vein peptide then intraperitoneal glucose; conditions: peptide 5 μmol/kg alone or premixed with equimolar chromium via tail-vein; glucose 2 g/kg intraperitoneally
Experimental: The peptide (5 μmol/kg) either alone or premixed with equimolar concentrations of chromium were injected via tail-vein, immediately following which glucose (2 g/kg body weight) was administered intraperitoneally (*p<0.05, n=6-8).

[3] = Cr:peptide binding ratio after exposure to 10 equivalents of Cr^3+ and G-10 size exclusion chromatography; conditions: 0.1 mol/L hepes pH 7.4, overnight at 4° C., G-10 separation
Excerpt: The intersection points in the isotherms allow the number of tightly binding ions to be estimated. For bovine apoLMWCr, the chromium:oligopeptide ratio at the intersection point is 3.6, which is very close to the average amount of chromium bound to isolated bovine LMWCr, which is 3.5. Titration of bovine LMWCr with Cr^3+ has previously shown that four Cr^3+ ions are required to restore bioactivity. For the synthetic peptides, the intersection points occurred at Cr:peptide ratios of approximately 2, 2, and 4 for EDGEECDCGE (SEQ ID NO: 41), DGEECDCGEE (SEQ ID NO: 42) and pEEEEGDD (SEQ ID NO: 1) (FIG. 6), respectively. This is consistent with the Crpeptides binding ratios found after exposing the peptides to solutions of 10 equivalents of Cr^3+ (CrCl3.6H2O in 0.1 mol/L hepes buffer, pH 7.4 overnight at 4° C.) and separating the peptides from the excess Cr^3+ by G-10 size exclusion chromatography (EDGEECDCGE (SEQ ID NO: 41): 2.0(±0.3), and DGEECDCGEE (SEQ ID NO: 42): 2.0±0.3). A change in mode from specific coordinate covalent binding to just electrostatic absorption on the peptide surface is proposed. Thus, the inflection point of the isotherm for the peptide pEEEEGDD (SEQ ID NO: 1) implies that it tightly binds four Cr^3+ ions. […] The two visible features are readily assigned to d→d transitions from the Cr^3+ centers. […]

[pGlu]EEEGDD
Langmuir parameter Bt [1]: -0.73 mmol/g
Langmuir parameter K [1]: -151 L/mmol
Co-operativity [1]: Positively co-operative
Kf (Hill plot binding of formation constant) [1]: 1.92 × 10^20 (mol/L)^−4
n (Hill constant) [1]: 3.82
chromium:oligopeptide ratio at the intersection point of the Langmuir isotherm (number of tightly binding ions) [1]: ~4

EEEEGDD
insulin-stimulated glucose uptake in cultured myotubes (cultured myotubes): augments insulin-stimulated glucose uptake
insulin-stimulated phosphorylation of Akt (p308-Akt) (Akt): improves insulin-stimulated phosphorylation of Akt
insulin-stimulated glucose uptake in vivo [2]: augments insulin-stimulated glucose uptake in vivo

EDGEECDCGE [synthetic acidic peptide with the same amino acid composition as bovine LMWCr]
Langmuir parameter Bt [1]: -6.97 mmol/g
Langmuir parameter K [1]: -354 L/mmol
Co-operativity [1]: Positively co-operative
Kf (Hill plot binding of formation constant) [1]: 1.48 × 10^23 (mol/L)^−2
n (Hill constant) [1]: 3.64
chromium:oligopeptide ratio at the intersection point of the Langmuir isotherm (number of tightly binding ions) [1]: approximately 2
Cr:peptide binding ratio [3]: 2.0(±0.3)

DGEECDCGEE [synthetic acidic peptide with the same amino acid composition as bovine LMWCr]
Langmuir parameter Bt [1]: -62.9 mmol/g
Langmuir parameter K [1]: -9.94 L/mmol
Co-operativity [1]: Positively co-operative
Kf (Hill plot binding of formation constant) [1]: 1.01 × 10^11 (mol/L)^−2
n (Hill constant) [1]: 1.85
chromium:oligopeptide ratio at the intersection point of the Langmuir isotherm (number of tightly binding ions) [1]: approximately 2
Cr:peptide binding ratio [3]: 2.0±0.3
